Test [1] deals with total HDAC enzyme (HeLa extract). Kind of test: In vitro inhibition of total HDAC enzyme activity (HDAC Fluorimetric Assay/Drug Discovery Kit, BIOMOL). It counts as biochemical, human. Here is the method:
Measurement of in vitro inhibition of total HDAC enzyme activity:
The in vitro inhibition of total HDAC enzyme was determined by HDAC Fluorimetric Assay/Drug Discovery Kit (BIOMOL) according to manufacture's instruction. • 1. Add Assay buffer, diluted trichostatin A or test inhibitor to appropriate wells of the microtiter plate. Following table lists examples of various assay types and the additions required for each test.
• 2. Add diluted HeLa extract or other HDAC sample to all wells except those that are to be “No Enzyme Controls” (Blank). • 3. Allow diluted Fluor de LyS™ Substrate and the samples in the microtiter plate to equilibrate to assay temperature (25° C.). • 4. Initiate HDAC reactions by adding diluted substrate (25 μl) to each well and mixing thoroughly. • 5. Allow HDAC reactions to proceed for desired length of time and then stop them by addition of Fluor de Lys™ Developer (50 μl). Incubate plate at room temperature (25° C.) for 10-15 min. • 6. Read samples in a microtiter-plate reading fluorimeter capable of excitation at a wavelength in the range 350-380 nm and detection of emitted light in the range 440-460 nm.

For test [2], the target named is T1, HDAC6 (α-tubulin acetylation) (Homo sapiens, UniProt Q9UBN7).
T1 construct: endogenous in cells; host or cells: HeLa
T1 sequence (Q9UBN7 1-1215): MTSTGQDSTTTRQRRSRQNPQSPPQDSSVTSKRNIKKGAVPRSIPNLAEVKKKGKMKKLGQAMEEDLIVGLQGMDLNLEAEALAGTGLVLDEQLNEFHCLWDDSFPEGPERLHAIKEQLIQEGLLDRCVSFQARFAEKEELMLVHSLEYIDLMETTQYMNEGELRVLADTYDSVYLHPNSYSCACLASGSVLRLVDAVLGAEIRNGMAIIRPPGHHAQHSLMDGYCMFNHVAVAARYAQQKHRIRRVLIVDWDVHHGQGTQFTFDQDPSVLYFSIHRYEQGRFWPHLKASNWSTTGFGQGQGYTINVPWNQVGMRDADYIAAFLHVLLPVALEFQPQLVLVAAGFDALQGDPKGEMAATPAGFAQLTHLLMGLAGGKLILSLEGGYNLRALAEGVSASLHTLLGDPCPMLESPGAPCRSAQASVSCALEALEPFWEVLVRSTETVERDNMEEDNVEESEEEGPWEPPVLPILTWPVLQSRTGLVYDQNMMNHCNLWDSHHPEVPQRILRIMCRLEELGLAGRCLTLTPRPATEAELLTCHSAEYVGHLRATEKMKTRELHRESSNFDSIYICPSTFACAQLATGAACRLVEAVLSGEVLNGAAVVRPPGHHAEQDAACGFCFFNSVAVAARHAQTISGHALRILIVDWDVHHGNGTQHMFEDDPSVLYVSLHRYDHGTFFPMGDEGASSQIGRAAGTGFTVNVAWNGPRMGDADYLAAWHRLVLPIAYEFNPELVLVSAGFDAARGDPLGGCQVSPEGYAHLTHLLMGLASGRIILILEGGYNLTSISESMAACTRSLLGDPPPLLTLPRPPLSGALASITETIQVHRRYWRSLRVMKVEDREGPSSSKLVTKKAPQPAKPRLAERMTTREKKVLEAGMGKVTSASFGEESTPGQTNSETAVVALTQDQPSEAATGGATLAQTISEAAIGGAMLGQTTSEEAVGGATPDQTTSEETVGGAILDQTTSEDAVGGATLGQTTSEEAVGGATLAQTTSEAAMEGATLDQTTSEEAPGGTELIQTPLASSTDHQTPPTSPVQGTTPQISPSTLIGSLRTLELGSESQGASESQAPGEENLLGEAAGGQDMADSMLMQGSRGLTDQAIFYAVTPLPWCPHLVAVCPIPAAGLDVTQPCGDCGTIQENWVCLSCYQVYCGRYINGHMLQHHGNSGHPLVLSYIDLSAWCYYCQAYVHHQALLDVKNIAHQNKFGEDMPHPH
Kind of test: ELISA assay of acetylation of α-tubulin in HeLa cells. Type of test: cell-based. To be noted: M-HeLa, 24 hours. Here is the method: Measurement of acetylation activity in cells on substrates:
ELISA assay of acetylation of α-tubulin
This assay is used to measure in vivo inhibition of HDAC6 in a cytoblot assay. Materials and Reagent: • 1. 24-well tissue culture • 2. DMEM Medium containing 10% FBS • 3. 96-well white plate • 4. HeLa cell line • 5. M-PER Mammalian Protein Extraction Reagent (Pierce) • 6. Bradford assay reagent • 7. Anti-acetyl-tubulin (Upstate) • 8. HRP-labeled anti-mouse IgG (Upstate) • 9. Coating Buffer: 15 mM Na2CO3, 35 mM NaHCO3 (pH 9.6) • 10. 10×PBS: 0.58 M Na2HPO4, 0.17M NaH2PO4, 0.68M NaCl (pH 7.4) • 11. Wash Buffer:1×PBS containing 0.05% Tween-20 (PBST) • 12. Blocking Buffer:10 mg/ml bocine serum albumin (BSA) in PBS • 13. Antibody Dilution Buffer: 5 mg/ml BSA in PBST • 14. Enhanced chemiluminescence (ECL) (Amersham)
Procedure for performing the assay in 96-well plate: • 1. HeLa cells were seeded at a density of 60000 cells/500 μl/well in 24-well plate and incubated at 37° C. for 24 hours. • 2. Compounds were added and incubated for 24 hours at 37° C. • 3. Culture medium was removed, then washes the cells twice with ice-cold PBS. • 4. Add 100 μl/well of Protein Extraction Reagent and gently shake the mixture for 5 minutes. • 5. Collect the lysate to a 96-well plate respectively. Determine the concentration of protein by Bradford assay. • 6. Coat the wells of a 96-well white plate with 100 μl/well of 2.5 μg whole cell protein in Coating Buffer by incubating overnight at 4° C. • 7. Discard the uncoated proteins and wash the coated wells three times with 200 μl/well of PBST. • 8. Block coated wells by incubating the plate with 200 μl/well of Blocking Buffer for 1 hour at 37° C. • 9. Wells were aspirated and washed three times with 200 μl/well of PBST. • 10. After aspirating, 50 μl/well of Antibody Dilution Buffer containing anti-Ac-tubulin (1:1000) were added to each well and incubated for 2 hour at 37° C. • 11. Wells were aspirated and washed three times with 200 μl/well of PBST. • 12. 50 μl/well of Antibody Dilution Buffer containing HRP-labeled anti-mouse IgG (1:2000) were added to each well and incubated for 2 hour at 37° C. • 13. Wells were aspirated and washed three times with 200 μl/well of PBST. • 14. Wells were washed three times with 200 μl/well of purified water. • 15. Add 50 μl/well of ECL mixture, then read the plates on the plate reader.

Turning to `Nc1cc(F)ccc1NC(=O)CCCCCCCNC(=O)c1cccc(/C=C2\C(=O)Nc3ccc(F)cc32)c1` [Example 55, 8-(3-((5-fluoro-2-oxoindolin-3-ylidene)methyl)benzamido)-N-(2-amino-4-fluorophenyl)octanamide], the “% of Inhibition on Total HDAC Enzyme at 30 μM” value (“% of Inhibition” below) in test [1] was determined as 14%. This compound also had a fold induction at 10 µM in test [2] of 1.49.

With `Nc1ccccc1NC(=O)CCCCNC(=O)c1cccc(/C=C2\C(=O)Nc3ccc(F)cc32)c1` [Example 49, 5-(3-((5-fluoro-2-oxoindolin-3-ylidene)methyl)benzamido)-N-(2-aminophenyl)pentanamide], the “% of Inhibition” value in test [1] stood at 22%. In addition, the fold induction at 10 µM in test [2] was determined as 2.39.

`Nc1ccccc1NC(=O)CCCCCCCNC(=O)c1cccc(/C=C2\C(=O)Nc3ccc(F)cc32)c1` [Example 54, 8-(3-((5-fluoro-2-oxoindolin-3-ylidene)methyl)benzamido)-N-(2-aminophenyl)octanamide]: the “% of Inhibition” value in test [1] is on record as 40%. For the same compound, the fold induction at 10 µM in test [2] came out at 2.91.

Turning to `Nc1ccccc1NC(=O)CCCCCCCNC(=O)c1ccc(/C=N/N=C2\C(=O)Nc3ccc(F)cc32)cc1` [Example 35, 8-(4-(((5-fluoro-2-oxoindolin-3-ylidene)hydrazono)methyl)benzamido)-N-(2-aminophenyl)octanamide], in test [1], the “% of Inhibition” value is 22%. The compound further came in with a fold induction at 10 µM in test [2] of 1.39.

As to `O=C(CCCCCCCNC(=O)c1cccc(/C=C2\C(=O)Nc3ccc(F)cc32)c1)NO` [Example 56, 8-(3-((5-fluoro-2-oxoindolin-3-ylidene)methyl)benzamido)-N-hydroxyoctanamide], in test [1], the “% of Inhibition” value worked out at 93%. This compound also returned a fold induction at 10 µM in test [2] of 2.66.

On to `Cc1[nH]c(/C=N/N=C2\C(=O)Nc3ccc(F)cc32)c(C)c1C(=O)NCCCCCCCC(=O)Nc1ccc(F)cc1N` [Example 27, 8-(5-(((5-fluoro-2-oxoindolin-3-ylidene)hydrazono)methyl)-2,4-dimethyl-1H-pyrrole-3-carboxamido)-N-(2-amino-4-fluorophenyl)octanamide], for which the “% of Inhibition” value in test [1] turned out to be 5%. The compound also had a fold induction at 10 µM in test [2] of 1.64.

Take `Cc1[nH]c(/C=N/N=C2\C(=O)Nc3ccc(F)cc32)c(C)c1C(=O)NCCCCCCCC(=O)Nc1ccccc1N` [Example 28, 8-(5-(((5-fluoro-2-oxoindolin-3-ylidene)hydrazono)methyl)-2,4-dimethyl-1H-pyrrole-3-carboxamido)-N-(2-aminophenyl)octanamide]: the “% of Inhibition” value in test [1] was 18%. Moreover, the fold induction at 10 µM in test [2] came to 1.74.

Take `O=C(CCCCCNC(=O)c1cccc(/C=C2\C(=O)Nc3ccc(F)cc32)c1)NO` [Example 46, 6-(3-((5-fluoro-2-oxoindolin-3-ylidene)methyl)benzamido)-N-hydroxyhexanamide]: the “% of Inhibition” value in test [1] came out at 95%. In test [2], this compound gave a fold induction at 10 µM of 2.07.

As for `Cc1[nH]c(/C=N/N=C2\C(=O)Nc3ccc(F)cc32)c(C)c1C(=O)NCCCCC(=O)Nc1ccccc1N` [Example 7, 5-(5-(((5-fluoro-2-oxoindolin-3-ylidene)hydrazono)methyl)-2,4-dimethyl-1H-pyrrole-3-carboxamido)-N-(2-aminophenyl)pentanamide], the “% of Inhibition” value in test [1] is 2%. The fold induction at 10 µM in test [2] is 1.03.
